The values below come from patent publication US12453778B2, “Incremental dose finding in controlled-release PTH compounds” (Ascendis Pharma Bone Diseases A/S, priority 2016, dated 2025).

Read-outs that look alike come from different tables or passages of the source. A value given as a limit tells only on which side of the number the result lay.

The conditions of series [1]: pump delivery, over 6-months; cited from earlier work.
For series [2] the following is noted: cited from earlier work; for osteosarcoma rate: rats, daily injections.
Series [3] in a line: Dose range finding / dose adjustment study with daily subcutaneous injections of TransCon PTH. More on the design: time of peak calcium concentration postdose / increases in calcium to pre-study levels / calcium increases: dose or concentration left out as unconfirmed. The following applies: for sCa compared to pre-study levels: severe hypercalcaemic levels.
Procedure: Dose Range Finding Study—Dose Adjustment Study in Cynomolgus Monkeys with Daily Subcutaneous Injections with TransCon PTH
This study was conducted in order to test the hypothesis of performing dose adjustments with TransCon PTH in 25% increments in response to hypocalcemia or hypercalcemia. The study was performed in male and female Cynomolgus monkeys. Four groups with one male and one female animal in each were dosed for four weeks starting at doses 0.2, 0.5, 1.0 and 2.0 μg/kg/day, respectively. Serum calcium (sCa) levels in the animals were measured pre-dose and post-dose on days -6, 1, 3, 7, 8, 12, 14, 16, 19, 23, 26, 28 and 29.
The conditions of series [4]: cited from earlier work.
For series [5] the following is noted: 6-year follow-up; cited from earlier work.

On to `CC[C@H](C)[C@H](NC(=O)[C@H](CCC(=O)O)NC(=O)[C@H](CO)NC(=O)[C@@H](NC(=O)[C@@H](N)CO)C(C)C)C(=O)N[C@@H](CCC(N)=O)C(=O)N[C@@H](CC(C)C)C(=O)N[C@@H](CCSC)C(=O)N[C@@H](Cc1cnc[nH]1)C(=O)N[C@@H](CC(N)=O)C(=O)N[C@@H](CC(C)C)C(=O)NCC(=O)N[C@@H](CCCCN)C(=O)N[C@@H](Cc1cnc[nH]1)C(=O)N[C@@H](CC(C)C)C(=O)N[C@@H](CC(N)=O)C(=O)N[C@@H](CO)C(=O)N[C@@H](CCSC)C(=O)N[C@@H](CCC(=O)O)C(=O)N[C@@H](CCCN=C(N)N)C(=O)N[C@H](C(=O)N[C@@H](CCC(=O)O)C(=O)N[C@@H](Cc1c[nH]c2ccccc12)C(=O)N[C@@H](CC(C)C)C(=O)N[C@@H](CCCN=C(N)N)C(=O)N[C@@H](CCCCN)C(=O)N[C@@H](CCCCN)C(=O)N[C@@H](CC(C)C)C(=O)N[C@@H](CCC(N)=O)C(=O)N[C@@H](CC(=O)O)C(=O)N[C@H](C(=O)N[C@@H](Cc1cnc[nH]1)C(=O)N[C@@H](CC(N)=O)C(=O)N[C@@H](Cc1ccccc1)C(=O)O)C(C)C)C(C)C` [PTH(1-34)], for which the calcium levels entry in series [1] is reported as “normal, steady state calcium levels with minimal fluctuation”. Also, in series [2], the osteosarcoma rate result is “dose dependent increase”.
As for “TransCon PTH: controlled-release PTH compound administered subcutaneously to cynomolgus monkeys; not tied to a numbered conjugate”, the “sCa compared to pre-study levels” value is at most 1.34 × in series [3] (Day 3, female dosed at 2.0 μg/kg/day) and “up to 1.42 ×” in series [3] (Day 3, male dosed at 2.0 μg/kg/day). In series [3] (Day 23, male), the “time of peak calcium concentration postdose” value is 4 h. Also, the “increases in calcium to pre-study levels” value in series [3] (Day 26, male and female) is “up to 1.17 ×”. In series [3] (Day 29, both sexes), the calcium increases entry is on record as “still present”. Besides, the tolerability entry in series [3] (daily subcutaneous administration at 0.2, 0.5 and 1.0 jag/kg/day for 28 days) is recorded as “well tolerated”.
With “PTH(1-84): Natpara, PTH(1-84), approved 2015 for once-daily subcutaneous injection in hypoparathyroidism; SEQ ID NO: 1”, the urinary calcium excretion result in series [4] (2-8 hours after injection) is “reduced”; in series [4] (over the 24-hour period) it was “did not change”. The urinary phosphate excretion result in series [4] (after injection) is reported as “increased only during the first 8 hours”. Moreover, the “patients developing hypercalcemia at one or more measurements” value in series [4] (during a 24-hour period after injection) is 71%. The “participants achieving normal blood calcium levels on reduced doses of calcium supplements and active forms of vitamin D” value in series [4] (once-daily subcutaneous injection, pivotal trial) is 42%. For the same compound, the “BMD by DXA” value in series [5] is “increases in lumbar spine and declines in distal ⅓ radius”. The bone turnover markers entry in series [5] is recorded as “remained greater than pretreatment values”. Also, the “deaths in high dose group” value in series [2] (high dose rats, dosing discontinued, primarily from metastatic osteosarcoma) is recorded as “excessive deaths”. Further, the osteosarcoma rate result in series [2] is “dose dependent increase”.
